From PMC9611758, “Bioactive Platinum(IV) Complexes Incorporating Halogenated Phenylacetates” (Molecules, 2022)
“Also recorded” adds a separate entry of the source. Read-outs that look alike come from different tables or passages of the source.

What was measured:
[1] = tested on: SJ-G2 glioblastoma; design: method as in PMID 36142383; conditions: MTT assay, 72 h; cited from earlier work
[2] = tested on: ADDP-resistant ovarian variant; design: method as in PMID 36142383; conditions: MTT assay, 72 h; cited from earlier work
[3] = tested on: A431 skin; design: method as in PMID 36142383; conditions: MTT assay, 72 h; cited from earlier work
[4] = tested on: HT29 colon; design: method as in PMID 36142383; conditions: MTT assay, 72 h; cited from earlier work
[5] = tested on: MIA pancreas; design: method as in PMID 36142383; conditions: MTT assay, 72 h; cited from earlier work
[6] = tested on: A2780 ovarian; design: method as in PMID 36142383; conditions: MTT assay, 72 h; cited from earlier work
[7] = tested on: U87 glioblastoma; design: method as in PMID 36142383; conditions: MTT assay, 72 h; cited from earlier work
[8] = tested on: Du145 prostate; design: method as in PMID 36142383; conditions: MTT assay, 72 h; cited from earlier work
[9] = tested on: MCF-7 breast; design: method as in PMID 36142383; conditions: MTT assay, 72 h; cited from earlier work
[10] = tested on: H460 lung; design: method as in PMID 36142383; conditions: MTT assay, 72 h; cited from earlier work
[11] = tested on: BE2-C neuroblastoma; design: method as in PMID 36142383; conditions: MTT assay, 72 h; cited from earlier work
[12] = tested on: HT29 colon; test: MTT growth inhibition assay, HT29; assay type: cell-based, human; conditions: MTT assay, 72 h
[13] = tested on: non-tumour derived MCF10A breast line; test: MTT growth inhibition assay, MCF10A; assay type: cell-based, human; conditions: 72 h
[14] = tested on: U87 glioblastoma; test: MTT growth inhibition assay, U87; assay type: cell-based, human; conditions: 72 h
[15] = tested on: panel of cell lines; test: MTT growth inhibition assay, whole panel of cell lines; assay type: cell-based, human; conditions: average over the cell lines tested, MTT assay, 72 h
[16] = tested on: BE2-C neuroblastoma; test: MTT growth inhibition assay, BE2-C; assay type: cell-based, human; conditions: 72 h
[17] = Lipophilicity by HPLC (log kw); assay type: physicochemical
Excerpt: For lipophilicity measurements, HPLC was utilised instead of the traditional shake-flask method, as described previously. Recent studies have also reported the efficiency of HPLC in measuring the lipophilicity of compounds [79, 80]. Each complex was eluted under several isocratic ratios. A standard curve was generated to calculate the log value of the capacity factor (log k) according to Equation (1). Following Equation (2), the percentage of organic solvent (CH3CN) in the mobile phase from each isocratic run was plotted against log kw (Figure S80). Log kw is the chromatographic lipophilicity index or measure of lipophilicity of the complex, so a higher value corresponds to greater lipophilicity. Because the selected axial ligands in this study contain F, Cl, Br, and I, it was only appropriate to determine the influence of the halogens on the overall lipophilicity of the platinum(IV) complexes. […] Conversely, the least lipophilic complex was the phen derivative containing 4-FPA, 3, with a log kw of 0.25. Furthermore, for the phen derivatives, the order of increasing lipophilicity was 3 > 1 > 5 > 7, which corresponds to the order of increasing size of the halogens, F > Cl > Br > I. This pattern was also observed with the 5,6-Me2phen derivatives (4 > 2 > 6 > 8), thereby confirming that the halogens increased the order of lipophilicity accordingly based on their size.
For lipophilicity measurements, analytical HPLC was utilised. Elution profiles were acquired on an Agilent (Melbourne, VIC, Australia) Technologies 1260 Infinity instrument equipped with a Phenomenex Onyx^TM Monolithic C18-reverse phase column (100 × 4.6 mm, 5 µm pore size) (Sydney, NSW, Australia). The mobile phase consisted of solvents, A (0.06% TFA in d.i.H2O) and B (0.06% TFA in CH3CN/d.i.H2O (90:10)). Potassium iodide was used as an external dead volume marker to determine the dead time of the column. Retention times (TR) were measured at varying isocratic ratios ranging from 30 to 36% of solvent B at 1 mL·min^−1 mL. An injection volume of 10 µL was utilised. Capacity factors were determined according to Equation (1):(1) k=(TR−T0)/T0 where k is the capacity factor, TR is the retention time of the analyte, and T0 represents the dead time. A minimum of four different mobile compositions were used for each complex to calculate k. A linear plot was generated of log k against the concentration of CH3CN in the mobile phase to determine the value of log kw expressed by Equation (2):(2) logk=Sφ+logkw where S is the slope, φ is the concentration of the CH3CN in the mobile phase, and log kw represents the capacity factor of the complex in 100% d.i.H2O. Extrapolation of this linear plot to the y-intercept indicates the log kw value.

[18] = tested on: HT29 colon cells; test: ROS detection assay (DCFH-DA); assay type: cell-based, human; conditions: HT29 colon cells, treated at GI50 concentration (TBHP positive control 20 μM)
Excerpt: Although ROS is required for cancer cell function and progression, it can induce programmed cell death or apoptosis. […] In this study, we report the ROS activity of the studied platinum(IV) complexes, 1–8, together with the individual axial ligands (4-CPA, 4-FPA, 4-BPA, and 4-IPA) in the human cancer cell line, HT29 colon (Figure 19, Table 8, and Figure S95). The ROS potential of their platinum(II) and platinum(IV) precursors in the same cell line is also presented for comparison purposes (Table 8). […] HT29 colon cells were stained by DCFH-DA and then treated with the complexes at each specific GI50 concentration. Upon ROS production, the DCFH-DA produced dichlorodihydrofluorescein, a fluorescent product. The measured fluorescence was, therefore, proportional to the produced ROS.
To investigate the presence of ROS in treated cells, a DCFDA/H2DCFDA-cellular ROS Assay Kit (Abcam, Cambridge, MA, USA) was used, as previously described. A total of 25,000 cells/mL of HT29 cells in DMEM were seeded in 96-well plates. Cells were washed with 1X kit buffer, and then stained with 25 μM 2′,7′-dichlorofluorescein diacetate (DCFH-DA) and incubated for 45 min. DCFH-DA was then removed, and cells were then re-washed with 1X kit buffer, after which phenol red free media was added. Cells were then treated with a GI50 drug concentration for each complex. The plates were directly scanned to measure fluorescence (relative fluorescence units (RFU)) at different time points using the Glo-Max®-Multimode microplate reader (Promega Corporation, Alexandra, VIC, Australia) at an excitation/emission of 485/535 nm. To generate the positive control (20 μM tert-butyl hydroperoxide (TBHP)), cells were washed with 1X kit buffer, and stained with DCFDA (25 μM) for 45 min; this was removed and TBHP was added in phenol red free media, and the resulting solution was scanned as described above.

[19] = tested on: ADDP-resistant ovarian variant; test: MTT growth inhibition assay, ADDP; assay type: cell-based, human
[20] = tested on: SJ-G2 glioblastoma; test: MTT growth inhibition assay, SJ-G2; assay type: cell-based, human; conditions: 72 h
[21] = Reduction experiments with AsA by 1H-NMR and 1D-195Pt-NMR; assay type: physicochemical; conditions: D2O, 37 °C
Excerpt: Platinum(IV) complexes are reduced to their platinum(II) precursors by intracellular biological reducing agents such as AsA or GSH in tumour cells. However, the precise mechanism by which reduction occurs is not fully understood. In this paper, reduction reaction experiments were undertaken on the synthesised platinum(IV) complexes, 1–8, with the aid of ^1H-NMR and 1D-^195Pt-NMR spectroscopy. The method used for the reduction reaction experiments was adapted from the literature without modifications. A total of 10 mM PBS (~7.4 pH) was selected as media, and AsA was used as the biological reducing agent to investigate the reduction property of 1–8. Prior to the reduction reaction experiments, a control was prepared where each metal complex was dissolved with PBS in D2O. 1D-^195Pt-NMR was measured within the regions of −2800 and 400 ppm (30 min per region), at 37 °C. This was undertaken to confirm that the PBS would not interfere with the reduction process of the metal complexes. […] The approximate time points for the studied complexes at which an estimated 50% reduction had occurred, in the presence of AsA, as represented by T50%, are summarised in Table 6.
The reduction properties of 1–8 were monitored using ^1H-NMR and 1D-^195Pt-NMR spectroscopy on a 400 MHz Bruker (Melbourne, VIC, Australia) Avance Spectrometer. A sequence of ^1H-NMR experiments was carried out for 1 h at 37 °C, followed by 1D-^195Pt-NMR within the regions of −2800 and 400 ppm. An amount of 10 mM PBS (~7.4 pH) was transferred to a vial and reduced to dryness through rotary evaporation. AsA (~1 mg) was combined with the metal complex (~5 mg) and transferred to the vial containing the dried PBS. A total of 600 µL of D2O was then added to the vial to dissolve the complex, AsA, and the PBS together.

[22] = tested on: A431 skin; test: MTT growth inhibition assay, A431; assay type: cell-based, human; conditions: 72 h
[23] = tested on: Du145 prostate; test: MTT growth inhibition assay, Du145; assay type: cell-based, human
[24] = tested on: A2780 ovarian; test: MTT growth inhibition assay, A2780; assay type: cell-based, human; conditions: 72 h
[25] = tested on: MIA pancreas; test: MTT growth inhibition assay, MIA; assay type: cell-based, human; conditions: 72 h
[26] = tested on: MCF-7 breast; test: MTT growth inhibition assay, MCF-7; assay type: cell-based, human; conditions: MTT assay, 72 h
[27] = tested on: H460 lung; test: MTT growth inhibition assay, H460; assay type: cell-based, human; conditions: 72 h
[28] = Du145 prostate, ratio of GI50 values

**Q.** With `O=C1[O][Pt]2([NH][C@@H]3CCCC[C@H]3[NH]2)[O]C1=O` (relative stereo) [Oxaliplatin, trans-L-(1R,2R-diaminocyclohexane) oxalatoplatinum(II)] as the compound, how does the GI50 [1] read?
**A.** 3000 ± 1200 nM

**Q.** What about the GI50 [2] of the same compound?
**A.** 800 ± 100 nM

**Q.** What about the GI50 [3] of the same compound?
**A.** 4100 ± 500 nM

**Q.** And the GI50 [4]?
**A.** 900 ± 200 nM

**Q.** What about the GI50 [5] of the same compound?
**A.** 900 ± 200 nM

**Q.** And the GI50 [6]?
**A.** 160 ± 100 nM

**Q.** And the GI50 [7]?
**A.** 1800 ± 200 nM

**Q.** What about the GI50 [8] of the same compound?
**A.** 2900 ± 400 nM

**Q.** What about the GI50 [9] of the same compound?
**A.** 500 ± 100 nM

**Q.** And the GI50 [10]?
**A.** 1600 ± 100 nM

**Q.** What about the GI50 [11] of the same compound?
**A.** 900 ± 200 nM

**Q.** With `Cc1c(C)c2c3c4c1=CC=C[N]4[Pt+2]([OH])([O]C(=O)Cc1ccc(Br)cc1)[N]3C=CC=2.N[C@H]1CCCC[C@@H]1N` [Complex 6, [Pt^IV(5,6-Me2phen)(SS-DACH)(4-BPA)(OH)]^2+] as the compound, how does the GI50 [12] read?
**A.** 7 ± 2 nM

**Q.** What about the GI50 [13] of the same compound?
**A.** 10 ± 2 nM

**Q.** And the GI50 [14]?
**A.** 35 ± 5 nM

**Q.** And the GI50 [15]?
**A.** 22 ± 4 nM

**Q.** What about the GI50 [16] of the same compound?
**A.** 100 ± 20 nM

**Q.** What about the log kw ([17]; chromatographic lipophilicity index, extrapolated to 100% d.i.H2O) of the same compound?
**A.** 1.07

**Q.** What about the “log kw (y-intercept of log k versus [CH3CN] % plot, Figure S80)” value ([17]; linear fit) of the same compound?
**A.** 1.0701

**Q.** And the “ROS production 24 h” value ([18]; 24 h)?
**A.** 496 ± 14 RFU

**Q.** What about the “ROS production 48 h” value ([18]; 48 h) of the same compound?
**A.** 598 ± 14 RFU

**Q.** What about the “ROS production 72 h” value ([18]; 72 h) of the same compound?
**A.** 643 ± 14 RFU

**Q.** And the “fold more potent than cisplatin” value ([19]; ADDP-resistant ovarian variant, ratio of GI50 values)?
**A.** ~4700 fold

**Q.** And the GI50 ([19]; MTT assay, 72 h)?
**A.** 6 ± 2 nM

**Q.** And the GI50 [20]?
**A.** 23 ± 5 nM

**Q.** What about the “T50% (approximate time at which 50% reduction occurs)” value ([21]; 10 mM PBS (~7.4 pH), 1H-NMR) of the same compound?
**A.** 30 min

**Q.** What about the “extent of reduction 1 h after the final 1H-NMR experiment (1D-195Pt-NMR)” value ([21]; PBS, regions −2800 and 400 ppm) of the same compound?
**A.** partial reduction; also recorded: traces of platinum(IV) species were still observed

**Q.** And the GI50 [22]?
**A.** 19 ± 0.9 nM

**Q.** And the “fold more potent than 56MESS” value [23, 28]?
**A.** 4.6 fold

**Q.** What about the “fold more potent than cisplatin” value [23, 28] of the same compound?
**A.** 1200 fold

**Q.** And the GI50 ([23]; MTT assay, 72 h)?
**A.** 1 ± 0.6 nM

**Q.** And the GI50 [24]?
**A.** 20 ± 3 nM

**Q.** What about the GI50 [25] of the same compound?
**A.** 7 ± 2 nM

**Q.** And the GI50 [26]?
**A.** 21 ± 5 nM

**Q.** And the GI50 [27]?
**A.** 10 ± 2 nM
